# Test results as given in patent US6809200B2, “Process for the preparation of pyrazolo[4,3-d]pyrimidin-7-one compounds and intermediates thereof” (Pfizer Inc., priority 2000, dated 2004).
# Key:
# [1] = Dynamic Vapour Sorption (DVS) measurements; assay type: physicochemical
# Excerpt: Dynamic Vapour Sorption (DVS) measurements were made for the compound of Example 12 by exposing a solid sample to controlled relative humidity (% RH) and weight change recorded with time on an automated water sorption analyser.
# [2] = Preliminary analysis of hygroscopicity / hydration state; assay type: physicochemical; conditions: solid compound
SMILES,"weight lost on drying (sorption/desorption isotherm) ([1]; DVS, loss due to residual solvent or surface moisture)",hygroscopicity ([1]; solid sample exposed to controlled relative humidity),hygroscopicity (preliminary analysis) [2]
"CCCCOc1ncc(C(C)=O)cc1-c1nc2c(CC)n(C3CN(CC)C3)nc2c(=O)[nH]1.O=S(=O)(O)c1ccccc1 [Example 12, 5-(5-Acetyl-2-butoxy-3-pyridinyl)-3-ethyl-2-(1-ethyl-3-azetidinyl)-2,6dihydro-7H-pyrazolo[4,3-d]pyrimidin-7-one benzenesulfonate]",0.9%,non-hygroscopic,–
"CCCCOc1ncc(C(C)=O)cc1-c1nc2c(CC)n(C3CN(CC)C3)nc2c(=O)[nH]1 [compound 1A, 5-(5-Acetyl-2-butoxy-3-pyridinyl)-3-ethyl-2-(1-ethyl-3-azetidinyl)-2,6-dihydro-7H-pyrazolo[4,3-d]pyrimidin-7-one]",–,–,anhydrous and non-hygroscopic
